Results taken from patent US12668596B2, “Process for crystallizing nalmefene hydrochloride” (RHODES TECHNOLOGIES, priority 2021, dated 2026).
Structures can show the parent of a compound that is named as a salt.

Test: Solubility studies of nalmefene HCl monohydrate in aqueous HCl (visual dissolution at 80° C.)
Type: physicochemical
Procedure: A series of nalmefene HCl monohydrate solubility experiments were carried out in aqueous HCl. Nalmefene HCl monohydrate (520 mg) was charged to a 4 mL capped vial, followed by solvent (0-6 M HCl, 780 μL, 1.5 volumes) and heated to 80° C. on a pie-block. Increasing amounts of solvent were added periodically until dissolution was achieved (determined visually).
Seven dissolution experiments were carried out.

## C=C1CC[C@@]2(O)[C@H]3Cc4ccc(O)c5c4[C@@]2(CCN3CC2CC2)[C@H]1O5 [Nalmefene HCl, 17-(cyclopropylmethyl)-4,5α-epoxy-6-methylenemorphinan-3,14-diol]
Sample No. 0, HCl molarity 0 (water), 520 mg
  Volumes needed to dissolve nalmefene HCl at 80° C.: Fewer than 1.5 Volumes
Sample No. 1, HCl molarity 1, 520 mg
  Volumes needed to dissolve nalmefene HCl at 80° C.: 1.5 Volumes
Sample No. 2, HCl molarity 2, 520 mg
  Volumes needed to dissolve nalmefene HCl at 80° C.: 2.5 Volumes
Sample No. 3, HCl molarity 3, 520 mg
  Volumes needed to dissolve nalmefene HCl at 80° C.: 6.5 Volumes
Sample No. 4, HCl molarity 4, 520 mg
  Volumes needed to dissolve nalmefene HCl at 80° C.: 6.5 Volumes
Sample No. 5, HCl molarity 5, 520 mg
  Volumes needed to dissolve nalmefene HCl at 80° C.: 4.0 Volumes
Sample No. 6, HCl molarity 6, 520 mg
  Volumes needed to dissolve nalmefene HCl at 80° C.: 3.5 Volumes
Aqueous HCl 0-6 M
  HCl molarity at which solubility is at a minimum: 3-4 M HCl
